Data published in US10562842B2, “Use of polyaminoisoprenyl derivatives in antibiotic or antiseptic treatment” (UNIVERSITE D'AIX-MARSEILLE, priority 2011, dated 2020).

Tests used:
[1] = tested on: Salmonella Thyphimurium MDR BN10055; test: MIC of antibiotics ± test compound (MIC ratio), micro-broth dilution; format: cell-based, Salmonella enterica serovar Typhimurium; conditions: compound at MIC/4; for MIC ratio (*) on BN10055 Chl: chloramphenicol; for MIC ratio (*) on BN10055 Dox: doxycycline; for MIC ratio (*) on BN10055 Nal: nalidixic acid
Protocol: (§1) The Enterobacter aerogenes Ea289 strain is a Kans derivative of the MDR clinical isolate Ea27, the acrB mutant, EaEP294, was constructed from Ea289. Multidrug-resistant Salmonella enterica serovar Typhimurium DT104 strains (BN10055) was isolated from cattle in France, the isogenic acrB derivative mutant, BN10055ΔacrB, was constructed from BN10055. Strains were maintained at −80° C. in 25% (v/v) glycerol for cryoprotection. Bacteria were routinely grown in Mueller-Hinton (MH) broth at 37° C.
(§2) Susceptibilities to antibiotics and compounds were determined in microplates by broth dilution method, as previously described. Minimal Inhibitory Concentrations (MICs) were determined with an inoculum of 10^6 CFU in 200 μL of MH broth containing two-fold serial dilutions of each drug. […] All MIC determinations were repeated at least three times in independent experiments.
(§3) […] All MIC determinations were repeated at least three times in independent experiments. The MIC ratio corresponds to the ratio of the MIC of an antibiotic alone to the MIC of the same antibiotic in the presence of the tested compound (at MIC/4).
(§4) For reminder, the MIC ratio corresponds to the ratio of the MIC of the assessed antibiotic alone to the MIC of the same antibiotic in the presence of the tested compound (at MIC/4).

[2] = tested on: Enterobacter aerogenes MDR Ea289; test: as above; format: cell-based
Protocol: The process consists of treating the MDR bacteria with the compounds of the invention in the presence of antibiotics.
as §2
The MICs of chloramphenicol±test compounds (MIC/4) were determined by the micro-broth dilution method (9). All MIC determinations were repeated at least three times in independent experiments. The MIC ratio corresponds to the ratio of the MIC of an antibiotic alone to the MIC of the same antibiotic in the presence of the tested compound (at MIC/4).
The compounds listed in Table 2 were tested for their ability to decrease the chloramphenicol MIC of Ea289, an Enterobacter aerogenes MDR strain (1). Each compound was first tested at MIC/4. […] All MIC determinations were repeated at least three times in independent experiments.
as §4

[3] = tested on: Enterobacter aerogenes MDR Ea289; test: as above; format: cell-based; conditions: compound at MIC/4, Set 2; for MIC ratio (*) on Ea289 Dox: doxycycline; for MIC ratio (*) on Ea289 Nal: nalidixic acid
BN10055ΔacrB = test: as above; format: cell-based, Salmonella enterica serovar Typhimurium; conditions: compound at MIC/4, Set 1
Protocol: as §1, §2, §3, §4

[4] = tested on: strain IV2571223 - Escherichia coli pig (sensible); test: MIC of antibiotics in the presence and absence of test compound, veterinary strains; format: cell-based; parameters: MIC for strain IV2571223, Doxycycline in the presence of test compound: unit not given beside the values; conditions: compound at the Concentration (μM) (2-50)
Protocol: (§5) For each strain and each antibiotic, the MICs were determined in the presence and in the absence of one test compound.

[5] = tested on: strain IV2570533 - Escherichia coli cattle (resistant); test: as above; format: cell-based; conditions: compound at the Concentration (μM) (0.896-12.6)
Protocol: as §5

[6] = tested on: strain IV2570060 - Escherichia coli cattle (sensible); test: as above; format: cell-based; conditions: compound at the Concentration (μM) (4-50)
Protocol: as §5

[7] = tested on: strain IV2571418 - Escherichia coli pig (resistant); test: as above; format: cell-based; parameters: MIC for strain IV2571418, Doxycycline in the presence of test compound: unit not given beside the values; conditions: compound at the Concentration (μM) (4-50)
Protocol: as §5

CHO cells = test: Toxicity on CHO cultured cells; format: cell-based
Protocol: The toxicity of each compound was determined on CHO cultured cells. Incubation of CHO cells was performed with serial dilution of compounds. The compounds are either solubilized in DMSO or in PBS. The IC50 corresponds to the concentration of compounds leading to a killing of 50% of the CHO cells after 24 hours of incubation.

Ea289ΔacrB (Ea294) = test: MIC of antibiotics ± test compound (MIC ratio), micro-broth dilution; format: cell-based, Enterobacter aerogenes; conditions: compound at MIC/4, Set 1
Protocol: as §1, §2, §3, §4

[8] = chloramphenicol, compound at MIC/4, Set 2

With CC(C)=CCC/C(C)=C/CC/C(C)=C/CNCCCCN [Compound 17] the “MIC ratio (*) on BN10055 Chl” value ([1]; Set 2) was 8, the “MIC ratio (*) on BN10055 Dox” value ([1]; Set 2) was 16 and the “MIC ratio (*) on BN10055 Nal” value ([1]; Set 2) was 64. The “MIC ratio (*) on Ea289 Chl” value [2, 8] was 8-16, the “MIC ratio (*) on Ea289 Dox” value [3] was 64 and the “MIC ratio (*) on Ea289 Nal” value [3] was 16.
CC(C)=CCC/C(C)=C/CC/C(C)=C/CNCCCN1CCCC1 [Compound 22] was tested, and the “MIC ratio (*) on BN10055 Chl” value ([1]; Set 2) was 16, the “MIC ratio (*) on BN10055 Dox” value ([1]; Set 2) was 32 and the “MIC ratio (*) on BN10055 Nal” value ([1]; Set 2) was 128. The “MIC ratio (*) on Ea289 Chl” value [2, 8] was 8-16, the “MIC ratio (*) on Ea289 Dox” value [3] was 32 and the “MIC ratio (*) on Ea289 Nal” value [3] was 16.
In the case of CC(C)=CCC/C(C)=C/CC/C(C)=C/CNCCCNCCCCN [Compound 19], the “MIC ratio (*) on BN10055 Chl” value ([1]; Set 2) is reported as 8-16, the “MIC ratio (*) on BN10055 Dox” value ([1]; Set 2) is reported as 16 and the “MIC ratio (*) on BN10055 Nal” value ([1]; Set 2) is reported as 64. For the same compound, the “MIC ratio (*) on Ea289 Chl” value [2, 8] was 8-16, the “MIC ratio (*) on Ea289 Dox” value [3] was 64 and the “MIC ratio (*) on Ea289 Nal” value [3] was 16.
For CC(C)=CCC/C(C)=C/CC/C(C)=C/CNCCCN [Compound 16], the “MIC ratio (*) on BN10055 Chl” value ([1]; Set 2) was 16-32, the “MIC ratio (*) on BN10055 Dox” value ([1]; Set 2) was 32 and the “MIC ratio (*) on BN10055 Nal” value ([1]; Set 2) was 128. The “MIC ratio (*) on Ea289 Chl” value [2, 8] was 8-16, the “MIC ratio (*) on Ea289 Dox” value [3] was 64 and the “MIC ratio (*) on Ea289 Nal” value [3] was 16.
CC(C)=CCC/C(C)=C/CC/C(C)=C/CNCCCNCCCN [Compound 20] was tested, and the “MIC ratio (*) on BN10055 Chl” value ([1]; Set 2) was 8, the “MIC ratio (*) on BN10055 Dox” value ([1]; Set 2) was 32 and the “MIC ratio (*) on BN10055 Nal” value ([1]; Set 2) was 64. For the same compound, the “MIC ratio (*) on Ea289 Chl” value [2, 8] was 8, the “MIC ratio (*) on Ea289 Dox” value [3] was 32 and the “MIC ratio (*) on Ea289 Nal” value [3] was 8.
In the case of CC(C)=CCCC(C)=CCNCCCNCCCCNCCCN (racemic) [Compound 10, {3-[4-(3-Amino-propylamino)-butylamino]-propyl}-(3,7-dimethyl-octa-2,6-dienyl)-amine], the “MIC ratio(*) on BN10055ΔacrB Chl” value (BN10055ΔacrB; chloramphenicol) is reported as 2, the “MIC ratio(*) on BN10055ΔacrB Ery” value (BN10055ΔacrB; erythromycin) is reported as 8 and the “MIC ratio(*) on BN10055ΔacrB Nal” value (BN10055ΔacrB; nalidixic acid) is reported as 2. The “MIC ratio (*) on BN10055 Chl” value ([1]; Set 1) was 16, the “MIC ratio (*) on BN10055 Chl” value ([1]; Set 2) was 16 and the “MIC ratio (*) on BN10055 Dox” value ([1]; Set 2) was 16. For the same compound, the “MIC ratio(*) on BN10055 Ery” value ([1]; erythromycin, Set 1) was 4, the “MIC ratio (*) on BN10055 Nal” value ([1]; Set 1) was 64 and the “MIC ratio (*) on BN10055 Nal” value ([1]; Set 2) was 64. For the same compound, the “MIC for strain IV2571223, Doxycycline in the presence of test compound” value [4] was 0.0625, the “MIC for strain IV2571223, Tylosine in the presence of test compound” value [4] was 4 and the “MIC for strain IV2570533, Doxycycline in the presence of test compound” value [5] was 2. The “MIC for strain IV2570533, Tylosine in the presence of test compound” value [5] was 8, the “MIC for strain IV2570060, Doxycycline in the presence of test compound” value [6] was 0.125 and the “MIC for strain IV2570060, Tylosine in the presence of test compound” value [6] was 16. For the same compound, the “Effective concentration (mM) for a MIC ratio of chloramphenicol ≥ 8 on Ea289” value ([2]; chloramphenicol) was 0.0078 mM, the “efficient concentration, times lower than the control PAβN” value ([2]; chloramphenicol MIC ratio of 8 on Ea289) was “about 4.9 times” and the “activity, effective concentration compared with PAβN to reach a MIC ratio of 8” value ([2]; chloramphenicol on Ea289) was “strong activity”. The “MIC ratio (*) on Ea289 Chl” value ([2]; chloramphenicol, compound at MIC/4, Set 1) was 16, the “MIC ratio (*) on Ea289 Chl” value [2, 8] was 8 and the “MIC ratio(*) on Ea289 Ery” value ([2]; erythromycin, compound at MIC/4, Set 1) was 4. The “MIC ratio (*) on Ea289 Nal” value ([2]; nalidixic acid, compound at MIC/4, Set 1) was 16, the “MIC for strain IV2571418, Doxycycline in the presence of test compound” value [7] was 2 and the “MIC for strain IV2571418, Tylosine in the presence of test compound” value [7] was 16. For the same compound, the IC50 (CHO cells; Cricetulus griseus, killing of 50% of the CHO cells after 24 hours of incubation) was 2.33 mM, the “IC50 on CHO cells, times higher than effective concentration” value (CHO cells; IC50 on CHO cells versus effective concentration on Ea289) was “about 300 times” and the “MIC ratio (*) on Ea289 Dox” value [3] was 16. For the same compound, the “MIC ratio (*) on Ea289 Nal” value [3] was 16, the “MIC ratio(*) on Ea289ΔacrB Chl” value (Ea289ΔacrB (Ea294); chloramphenicol) was 16 and the “MIC ratio(*) on Ea289ΔacrB Ery” value (Ea289ΔacrB (Ea294); erythromycin) was 8. For the same compound, the “MIC ratio(*) on Ea289ΔacrB Nal” value (Ea289ΔacrB (Ea294); nalidixic acid) was 8.
